What was measured:
[1] = system: female hooded-Lister rats; test: Elevated plus maze, Study 1; type: in vivo, rat
Text: (§1) The elevated plus maze has been widely used as a test for anxiety, as it avoids confounding effects on consummatory responses or sensitivity to shock and it has a certain level of ethological relevance (see Rodgers R J, Cole J C (1994) The elevated plus maze. Pharmacological methods and ethology. In: Cooper, S J, Hendrie C A (eds) Ethology and Psychopharmacology. J. Wiley & Sons Ltd, pp 9-941994).
(§2) The maze consists of opposite pairs of open and closed arms, and the proportion of exploration carried out on the open arms is taken to be a measure of anxiety. Thus the percentage of open arm entries is increased by known anxiolytic agents and reduced by anxiogenic compounds (Pellow, S, Chopin P, File S E, Briley, M (1985) Validation of open: closed arm entries in an elevated plus maze as a measure of anxiety in the rat. J. Neurosci. Meth. 14: 149-167). In addition, the plus maze may be used to examine the behavioural response to stress, as exposure induces the release of corticosterone File, S E, Pellow, S (1987) Behavioural pharmacology of minor tranquillisers. J. Pharmacol. Exp. Ther. 35: 265-290). The elevated plus maze is based on an approach conflict model and has been validated as a model of anxiety in the rat (Tomkins D M (1990) The behavioural effects of anxiogenic agents in rodents. PhD thesis. Postgraduate studies in Pharmacology. University of Bradford).
(§3) Two studies were carried out using the elevated plus maze method and the aim of the studies was to assess the ability of a Isomer A for its ability to produce an anxiolytic effect in female hooded-Lister rats.
(§4) A total of 90 female hooded-Lister rats were used as subjects for study 1. Female hooded-Lister rats (Harlan, UK) were obtained as adults and weighed approximately 200-220 g at the start of the study. Subjects were housed in routinely used home cages in groups of 5 per cage. Home cages measured 59×35×24 cm. Rats were maintained under standard laboratory conditions on a 12:12 hour light/dark cycle (lights on at 08:00 h). Experimental procedures were performed in the light phase. Laboratory rooms were temperature controlled at 21±2° C. and humidity remained at 40-50% throughout the study. Rats were tested in the naïve state i.e. they had no exposure to the plus maze prior to testing, although they were handled and received sham injections prior to testing.
Isomer A (1.0-30.0 mg/kg) and chlordiazepoxide (1.0-5.0 mg/kg) were tested. Isomer A was dissolved in water and administered via the oral route 30 minutes prior to testing. Chlordiazepoxide (CDP) was dissolved in saline and administered via the intraperitoneal route 30 min prior to testing.
(§5) The maze consisted of a +shaped maze, made of Perspex, with two open arms (30×5 cm) and two closed arms (30×5 cm). The maze was arranged so that like arms are opposing. The closed arms were surrounded by matt black walls on all sides (10 cm in height). The maze was elevated to a height of 50 cm, and the surface was covered with a removable rubber matting. The behaviour of drug or vehicle-treated rats was monitored by means of a video camera attached to a TV monitor and video recorder. The rat was placed in the centre square and behaviour monitored over a 10 min test period. […] The maze was cleaned between tests and rats were placed on the maze in a randomised manner in order to minimise the effects of familiar cage mate odours.
(§6) Behaviour was recorded and the following parameters were analysed from the video tapes using the Hindsight® program for ethological analysis of behaviour: time spent on, and entries into, the open and closed arms, time spent in the centre square and rearing on the open and closed arms.
(§7) Elevated plus maze data were analysed by a one way ANOVA, followed by Dunnett's t test to assess drug effects on number of entries into the open and closed arms, length of time spent, and number of rears in, open and closed arms, and time spent in the centre square compared with vehicle.

[2] = system: female hooded-Lister rats; test: Elevated plus maze, Study 2; type: in vivo, rat
Text: as §1, §2, §3
as §4, with “60” for “90”, “B.” for “1.”, “(Charles River,” for “(Harlan,”, “220-250” for “200-220”
Isomer A (0.1-2.5 mg/kg) and chlordiazepoxide (2.5 mg/kg) were tested. Isomer A was dissolved in water and administered via the oral route (p.o.) 30 minutes prior to testing. Chlordiazepoxide (CDP) was dissolved in saline and administered via the intraperitoneal route (i.p.) 30 min prior to testing.
as §5, §6, §7

[3] = Isomer A 1.0-10 mg/kg p.o., 10 min trial, ANOVA
[4] = Isomer A 1.0-10 mg/kg p.o., 10 minute trial, ANOVA
[5] = Isomer A 1.0-10 mg/kg p.o., 10 minute trial, overall ANOVA
[6] = CDP 2.5 mg/kg i.p. and Isomer A 0.1-2.5 mg/kg p.o., 10 min trial, overall ANOVA
[7] = CDP 1.0-5.0 mg/kg i.p., 10 min trial, ANOVA

## COc1cc2c(cc1OC)[C@@H]1C[C@@H](O)[C@H](CC(C)C)CN1CC2 (single isomer, unassigned) [Isomer A]
[1]; Isomer A 1 mg/kg p.o., 10 minute trial
  total open arm entries: trend towards an increase
[1]; Isomer A 1 mg/kg p.o., Study 1
  magnitude of the increase in time spent on the open arms relative to CDP at 2.5 mg/kg: comparable
[1]; Isomer A 1 mg/kg p.o., post-hoc vs vehicle (p<0.05)
  time spent on the open arms: significant increase
[1]; Isomer A 30 mg/kg p.o., animals remained stationary for much of the 10 minute test, behaviour not scored
  overall activity levels on the elevated plus maze: markedly reduced
[1]; [3]
  time spent in the centre square: no significant effect
  time spent on the closed arms: no significant effect
[1]; [4]
  number of rears: no significant effect
  total closed arm entries: no significant effect
[1]; [5]
  time spent on the open arms: overall significant effect
  total open arm entries: significant effect
[1]; Isomer A, Study 1, some measures of behaviour
  anxiolytic effect on the elevated plus maze: some anxiolytic potential
[1]; Isomer A, most marked at 1.0 mg/kg p.o., failed to reach statistical significance
  time spent on the closed arms: trend towards a reduction
[2]; [6]
  number of rears: no overall significant effect
  time spent in the centre square: no overall significant effect
  time spent on the closed arms: overall significant effect
  time spent on the open arms: overall significant effect
  total closed arm entries: no overall significant effect
  total open arm entries: no overall significant effect
[2]; Isomer A 0.1 mg/kg p.o., effect failed to achieve statistical significance
  time in the centre square: reduced
[2]; Isomer A 1.0 mg/kg p.o., post-hoc vs vehicle (p<0.05)
  time spent on the closed arms: significant reduction
[2]; Isomer A 0.1-2.5 mg/kg p.o., Study 2
  magnitude of the increase in time spent on the open arms relative to CDP at 2.5 mg/kg: comparable
[2]; Isomer A, all doses 0.1-2.5 mg/kg p.o., post-hoc vs vehicle (p<0.05-p<0.001)
  time spent on the open arms: significant increase
[2]; Isomer A, all doses tested 0.1-2.5 mg/kg p.o., Study 2, certain measures of behaviour
  anxiolytic effect on the elevated plus maze: anxiolytic potential

## CNC1=Nc2ccc(Cl)cc2C(c2ccccc2)=[N+]([O-])C1 [CDP, chlordiazepoxide, reference compound]
[1]; [7]
  number of rears: no significant effect
  time spent on the closed arms: no significant effect
[1]; CDP 1.0-5.0 mg/kg i.p., 10 minute trial, ANOVA
  total closed arm entries: no significant effect

Reference: US20110190333A1, “DIHYDROTETRABENANZINE FOR THE TREATMENT OF ANXIETY” (Biovail Laboratories International (Barbados) S.R.L., priority 2008, published 2011)
